Reference: US6503929B1, “Nitrate salt of anti-ulcer medicine” (Nicox S.A., priority 1998, dated 2003)
Where a name gives a salt, the structure may show the parent alone.

Legend:
rats [1] = test: Anti-ulcer activity: gastric lesions produced by absolute ethyl alcohol (Robert et al. model); assay type: in vivo, rat; conditions: rats on empty stomach, oral dose 15 minutes before absolute ethyl alcohol (1 ml), sacrificed one hour later, cimetidine 50 mg/Kg, cimetidine nitrate 62,5 mg/Kg, ranitidine 50 mg/Kg, ranitidine nitrate 60 mg/Kg
Protocol: Anti-ulcer activity is evaluated according to the experimental model described in the paper of A. Robert e Al. “Cytoprotection by prostaglandins in rats. Prevention of gastric necrosis produced by alcohol, HCl, NaOH, hypertonic NaCl and thermal injury” 77, 433-43 1979. To 5 groups of 10 rats each, kept on empty stomach since the previous night, 15 minutes before the supply of absolute ethyl alcohol (1 ml), by oral way are supplied: 5 ml/Kg of carboxymethylcellulose aqueous suspension 2%. 50 mg/Kg of cimetidine in 5 ml/Kg of carboxymethylcellulose aqueous suspension 2%. 62,5 mg/Kg of cimetidine nitrate (corresponding to 50 mg/Kg of cimetidine) in 5 ml/Kg of carboxymethylcellulose aqueous suspension 2%. 50 mg/Kg of ranitidine in 5 ml/Kg of carboxymethylcellulose aqueous suspension 2%. 60 mg/Kg of ranitidine nitrate (corresponding to […]) in 5 ml/Kg of carboxymethylcellulose aqueous suspension 2%. A hour later the animals are sacrificed and the gastric lesion incidence is evaluated.

rats [2] = conditions: rat, in vivo, po, 100 mg/kg

CNC(=C[N+](=O)[O-])NCCSCc1ccc(CN(C)C)o1 [Ranitidine.HNO3, ranitidine mononitrate salt]
Gastric Damage % (rats [1]; mononitrate salt): 40%
toxic symptom presence (rats [2]): In no one of the group animals the toxic symthom presence was noted

CN/C(=N/CCSCc1nc[nH]c1C)NC#N [Cimetidine, cimetidine, reference compound]
Gastric Damage % (rats [1]): 100%

CNC(=C[N+](=O)[O-])NCCSCc1ccc(CN(C)C)o1 [Ranitidine, ranitidine, reference compound]
Gastric Damage % (rats [1]): 80%

cimetidine mononitrate salt [Cimetidine.HNO3]
Gastric Damage % (rats [1]): 50%
